# Assays:
# GIST patients = experiment: Example 2 study: treatment-emergent adverse events; assay type: in vivo, human
# Experimental: Grade 3 or 4 treatment-emergent adverse events (TEAEs) in >5% of patients were lipase increased (18%; n=33), anemia (11%; n=20), hypertension (7%; n=13) and abdominal pain (6%; n=11). 13% of patients (n=24) experienced TEAEs leading to study treatment discontinuation, 17% of patients (n=31) experienced TEAEs leading to dose reduction and 49% of patients (n=88) had TEAEs leading to study drug interruption. Table 3 lists TEAEs >10% for GIST patients treated with ≥100 mg of ripretinib daily.
# [1] = Observed clinical PK after single and multiple doses; assay type: in vivo; conditions: human, plasma, oral; SD administration, healthy participants
# Experimental: CYP3A4 inactivation parameters and induction parameters were subsequently incorporated in the model to assess the net effect on drug clearance at steady state. Due to the uncertainty in the in vitro CYP3A4 MBI data and CYP3A4 induction data, a series of sensitivity analysis was performed. […] Therefore, the in vitro CYP3A4 interaction data were used in the final model. The simulated profiles of ripretinib and DP-5439 in virtual participants were compared to the clinical data. […] The predicted mean AUC0-12 values for DP-5439 on Day 1 were within 2-fold (majority within 1.5-fold) of the observed values, except for the 250-mg QD dose. The mean AUC0-12 and Cmax values for DP-5439 on Day 15 were under-predicted. […] For example, the reported AUCs for ripretinib and DP-5439 at the 150-mg QD dose level were 1.66 and 5.29, respectively. […] The mechanisms for the accumulation of DP-5439 were unclear.
# [2] = Food effect (high-fat meal) on exposure; assay type: in vivo, human; conditions: 150 mg dose of ripretinib
# Experimental: The effect of a high-fat breakfast on ripretinib and Compound A exposure was evaluated. A high fat meal consisted of approximately 150, 250, and 500-600 calories from protein, carbohydrate, and fat, respectively. […] The food effect is not considered to be clinically significant based on exposure-response analysis. Therefore, ripretinib may be taken with or without food at approximately same time each day.
# [3] = ≥100 mg daily, col c2 (no head; Grade 3 or 4)
# [4] = ≥100 mg daily, col c3 (no head; c1+c2)
smiles,measurement,setting,value
CCn1c(=O)c(-c2cc(NC(=O)Nc3ccccc3)c(F)cc2Br)cc2cnc(NC)cc21 [ripretinib],tolerability,GIST patients; GIST patients ≥100 mg daily,generally well tolerated
same,Grade 3 or 4 TEAE abdominal pain,GIST patients; ≥100 mg daily,6%
same,Grade 3 or 4 TEAE anemia,GIST patients; ≥100 mg daily,11%
same,Grade 3 or 4 TEAE hypertension,GIST patients; ≥100 mg daily,7%
same,Grade 3 or 4 TEAE lipase increased,GIST patients; ≥100 mg daily,18%
same,patients with TEAEs leading to dose reduction,GIST patients; ≥100 mg daily,17%
same,patients with TEAEs leading to study drug interruption,GIST patients; ≥100 mg daily,49%
same,patients with TEAEs leading to study treatment discontinuation,GIST patients; ≥100 mg daily,13%
same,TEAE: Abdominal pain,"GIST patients; ≥100 mg daily, col c1",33 (18%)
same,TEAE: Actinic keratosis,"GIST patients; ≥100 mg daily, col c1",25 (14%)
same,TEAE: Alopecia,"GIST patients; ≥100 mg daily, col c1",102 (57%)
same,TEAE: Amylase increased,"GIST patients; ≥100 mg daily, col c1",19 (11%)
same,TEAE: Anemia,"GIST patients; ≥100 mg daily, col c1",18 (10%)
same,TEAE: Arthralgia,"GIST patients; ≥100 mg daily, col c1",40 (22%)
same,TEAE: Back Pain,"GIST patients; ≥100 mg daily, col c1",30 (17%)
same,TEAE: Blood bilirubin increase,"GIST patients; ≥100 mg daily, col c1",16 (9%)
same,TEAE: Blood creatine phosphokinase increased,"GIST patients; ≥100 mg daily, col c1",13 (7%)
same,TEAE: Constipation,"GIST patients; ≥100 mg daily, col c1",67 (37%)
same,TEAE: Cough,"GIST patients; ≥100 mg daily, col c1",37 (21%)
same,TEAE: Decreased appetite,"GIST patients; ≥100 mg daily, col c1",60 (34%)
same,TEAE: Diarrhea,"GIST patients; ≥100 mg daily, col c1",50 (28%)
same,TEAE: Dizziness,"GIST patients; ≥100 mg daily, col c1",29 (16%)
same,TEAE: Dry skin,"GIST patients; ≥100 mg daily, col c1",37 (21%)
same,TEAE: Dysgeusia,"GIST patients; ≥100 mg daily, col c1",20 (11%)
same,TEAE: Dyspnea,"GIST patients; ≥100 mg daily, col c1",32 (18%)
same,TEAE: Fatigue,"GIST patients; ≥100 mg daily, col c1",94 (53%)
same,TEAE: Headache,"GIST patients; ≥100 mg daily, col c1",33 (18%)
same,TEAE: Hypertension,"GIST patients; ≥100 mg daily, col c1",25 (14%)
same,TEAE: Hypokalaemia,"GIST patients; ≥100 mg daily, col c1",21 (12%)
same,TEAE: Hypomagnesaemia,"GIST patients; ≥100 mg daily, col c1",18 (10%)
same,TEAE: Hypophosphataemia,"GIST patients; ≥100 mg daily, col c1",17 (10%)
same,TEAE: Insomnia,"GIST patients; ≥100 mg daily, col c1",21 (12%)
same,TEAE: Lipase increased,"GIST patients; ≥100 mg daily, col c1",18 (10%)
same,TEAE: Muscle spasms,"GIST patients; ≥100 mg daily, col c1",47 (26%)
same,TEAE: Myalgia,"GIST patients; ≥100 mg daily, col c1",79 (44%)
same,TEAE: Nausea,"GIST patients; ≥100 mg daily, col c1",77 (43%)
same,TEAE: Pain in extremity,"GIST patients; ≥100 mg daily, col c1",18 (10%)
same,TEAE: Palmar-plantar erythrodysaesthesia syndrome,"GIST patients; ≥100 mg daily, col c1",71 (40%)
same,TEAE: Pruritus,"GIST patients; ≥100 mg daily, col c1",18 (10%)
same,TEAE: Rash,"GIST patients; ≥100 mg daily, col c1",27 (15%)
same,TEAE: Rash maculo-papular,"GIST patients; ≥100 mg daily, col c1",18 (10%)
same,TEAE: Seborrhoeic keratosis,"GIST patients; ≥100 mg daily, col c1",21 (12%)
same,TEAE: Skin papilloma,"GIST patients; ≥100 mg daily, col c1",17 (10%)
same,TEAE: Upper respiratory tract infection,"GIST patients; ≥100 mg daily, col c1",18 (10%)
same,TEAE: Urinary tract infection,"GIST patients; ≥100 mg daily, col c1",16 (9%)
same,TEAE: Vision blurred,"GIST patients; ≥100 mg daily, col c1",17 (10%)
same,TEAE: Vomiting,"GIST patients; ≥100 mg daily, col c1",42 (24%)
same,TEAE: Weight decreased,"GIST patients; ≥100 mg daily, col c1",51 (29%)
same,TEAE: Abdominal pain,GIST patients; [3],11 (6%)
same,TEAE: Actinic keratosis,GIST patients; [3],0 (0%)
same,TEAE: Alopecia,GIST patients; [3],0 (0%)
same,TEAE: Amylase increased,GIST patients; [3],2 (1%)
same,TEAE: Anemia,GIST patients; [3],20 (11%)
same,TEAE: Arthralgia,GIST patients; [3],0 (0%)
same,TEAE: Back Pain,GIST patients; [3],2 (1%)
same,TEAE: Blood bilirubin increase,GIST patients; [3],5 (3%)
same,TEAE: Blood creatine phosphokinase increased,GIST patients; [3],5 (3%)
same,TEAE: Constipation,GIST patients; [3],0 (0%)
same,TEAE: Cough,GIST patients; [3],0 (0%)
same,TEAE: Decreased appetite,GIST patients; [3],2 (1%)
same,TEAE: Diarrhea,GIST patients; [3],3 (2%)
same,TEAE: Dizziness,GIST patients; [3],0 (0%)
same,TEAE: Dry skin,GIST patients; [3],0 (0%)
same,TEAE: Dysgeusia,GIST patients; [3],0 (0%)
same,TEAE: Dyspnea,GIST patients; [3],4 (2%)
same,TEAE: Fatigue,GIST patients; [3],4 (2%)
same,TEAE: Headache,GIST patients; [3],1 (1%)
same,TEAE: Hypertension,GIST patients; [3],13 (7%)
same,TEAE: Hypokalaemia,GIST patients; [3],5 (3%)
same,TEAE: Hypomagnesaemia,GIST patients; [3],0 (0%)
same,TEAE: Hypophosphataemia,GIST patients; [3],8 (5%)
same,TEAE: Insomnia,GIST patients; [3],0 (0%)
same,TEAE: Lipase increased,GIST patients; [3],33 (18%)
same,TEAE: Muscle spasms,GIST patients; [3],0 (0%)
same,TEAE: Myalgia,GIST patients; [3],0 (0%)
same,TEAE: Nausea,GIST patients; [3],1 (1%)
same,TEAE: Pain in extremity,GIST patients; [3],1 (1%)
same,TEAE: Palmar-plantar erythrodysaesthesia syndrome,GIST patients; [3],1 (1%)
same,TEAE: Pruritus,GIST patients; [3],0 (0%)
same,TEAE: Rash,GIST patients; [3],0 (0%)
same,TEAE: Rash maculo-papular,GIST patients; [3],0 (0%)
same,TEAE: Seborrhoeic keratosis,GIST patients; [3],0 (0%)
same,TEAE: Skin papilloma,GIST patients; [3],0 (0%)
same,TEAE: Upper respiratory tract infection,GIST patients; [3],0 (0%)
same,TEAE: Urinary tract infection,GIST patients; [3],4 (2%)
same,TEAE: Vision blurred,GIST patients; [3],0 (0%)
same,TEAE: Vomiting,GIST patients; [3],2 (1%)
same,TEAE: Weight decreased,GIST patients; [3],1 (1%)
same,TEAE: Abdominal pain,GIST patients; [4],44 (25%)
same,TEAE: Actinic keratosis,GIST patients; [4],25 (14%)
same,TEAE: Alopecia,GIST patients; [4],102 (57%)
same,TEAE: Amylase increased,GIST patients; [4],21 (12%)
same,TEAE: Anemia,GIST patients; [4],38 (21%)
same,TEAE: Arthralgia,GIST patients; [4],40 (22%)
same,TEAE: Back Pain,GIST patients; [4],32 (18%)
same,TEAE: Blood bilirubin increase,GIST patients; [4],21 (12%)
same,TEAE: Blood creatine phosphokinase increased,GIST patients; [4],18 (10%)
same,TEAE: Constipation,GIST patients; [4],67 (37%)
same,TEAE: Cough,GIST patients; [4],37 (21%)
same,TEAE: Decreased appetite,GIST patients; [4],62 (35%)
same,TEAE: Diarrhea,GIST patients; [4],53 (30%)
same,TEAE: Dizziness,GIST patients; [4],29 (16%)
same,TEAE: Dry skin,GIST patients; [4],37 (21%)
same,TEAE: Dysgeusia,GIST patients; [4],20 (11%)
same,TEAE: Dyspnea,GIST patients; [4],36 (20%)
same,TEAE: Fatigue,GIST patients; [4],98 (55%)
same,TEAE: Headache,GIST patients; [4],34 (19%)
same,TEAE: Hypertension,GIST patients; [4],38 (21%)
same,TEAE: Hypokalaemia,GIST patients; [4],26 (15%)
same,TEAE: Hypomagnesaemia,GIST patients; [4],18 (10%)
same,TEAE: Hypophosphataemia,GIST patients; [4],25 (14%)
same,TEAE: Insomnia,GIST patients; [4],21 (12%)
same,TEAE: Lipase increased,GIST patients; [4],51 (29%)
same,TEAE: Muscle spasms,GIST patients; [4],47 (26%)
same,TEAE: Myalgia,GIST patients; [4],79 (44%)
same,TEAE: Nausea,GIST patients; [4],78 (44%)
same,TEAE: Pain in extremity,GIST patients; [4],19 (11%)
same,TEAE: Palmar-plantar erythrodysaesthesia syndrome,GIST patients; [4],72 (40%)
same,TEAE: Pruritus,GIST patients; [4],18 (10%)
same,TEAE: Rash,GIST patients; [4],27 (15%)
same,TEAE: Rash maculo-papular,GIST patients; [4],18 (10%)
same,TEAE: Seborrhoeic keratosis,GIST patients; [4],21 (12%)
same,TEAE: Skin papilloma,GIST patients; [4],17 (10%)
same,TEAE: Upper respiratory tract infection,GIST patients; [4],18 (10%)
same,TEAE: Urinary tract infection,GIST patients; [4],20 (11%)
same,TEAE: Vision blurred,GIST patients; [4],17 (10%)
same,TEAE: Vomiting,GIST patients; [4],44 (25%)
same,TEAE: Weight decreased,GIST patients; [4],52 (29%)
same,half-life,[1],~14 h
same,AUC0-24h higher with a high-fat meal,[2],30%
same,Cmax higher with a high-fat meal,[2],22%
